Measurements published in PMC8894159, “Paltusotine, a novel oral once-daily nonpeptide SST2 receptor agonist, suppresses GH and IGF-1 in healthy volunteers” (Pituitary, 2022).

Key:
[1] = system: serum IGF-1; assay: Serum IGF-1 suppression in healthy volunteers; type: in vivo, human
Description: For assessment of serum IGF-1, in the single-dose cohorts, serum IGF-1 was collected on Day - 1 and Day 1 (pre-dose to 18 h post-dose), and Day 2 and 7 (at approximately the same time GHRH was administered on Day 1). In the M1 cohort, IGF-1 samples were obtained pre-dose, 6 and 12 h post-dose on Days - 1, 1 and 7; pre-dose and 12 h post-dose on Days 2–6; and at approximately the same time as dosing on Days 8, 10, and 14. For M2 and subsequent cohorts, IGF-1 samples were obtained pre-dose, 6 and 12 h post-dose on Days - 1, 1 and 10; pre-dose and 12 h post-dose on Days 2–9; and at approximately the same time as dosing on Days 11, 14, and 21.
(§1) Serum was isolated, stored, and analyzed for IGF-1 and GH according to the instructions from the manufacturer (IGF-1 and human GH diagnostic assay, Siemens Immulite® 1000 systems).
(§2) The study endpoints were effects of paltusotine on GHRH-stimulated GH and IGF-1 (pharmacodynamics), pharmacokinetics (including formulation and food effects), safety, and tolerability. For the analysis of effects paltusotine on GHRH-stimulated GH and IGF-1, the pharmacodynamic population included all randomized participants in the 1.25 mg, 2.5 mg, 5 mg, 10 mg, and 20 mg (S1, S2, S3, S4A, and S5) single-dose cohorts who received any amount of study drug and had at least one post-baseline pharmacodynamic assessment. The percent change in serum GH area under the curve (AUC) from 0 to 2 h (AUC0-2) from baseline was compared using ANOVA between each dosing cohort and all participants who received placebo. The single-dose pharmacodynamic population included 39 participants from the S1, S2, S3, S4, and S5 cohorts (paltusotine n = 29; placebo n = 10). […] For multiple-dose cohorts, only participants who received all doses were included. A change in IGF-1 levels 12 h post last dose from baseline (average of 3–4 measurements) were compared by ANOVA between each dosing cohort and all participants who received placebo. The multiple-dose pharmacodynamic population included 31 participants from the M1, M2, M3, and M4 cohorts (paltusotine n = 21; placebo n = 10).

[2] = system: GHRH-stimulated GH secretion; assay: GHRH challenge: suppression of GHRH-stimulated GH secretion, single-dose cohorts; type: in vivo, human
Description: To assess the ability of paltusotine to suppress GHRH-stimulated GH secretion, a GHRH challenge was performed in single-dose cohorts S1, S2, S3, S4, and S5 (oral solution) (Fig. 1). Recombinant human GHRH(1-44)-NH2 (somatorelin; Ferring Pharmaceuticals, Parsippany, NJ) 50 µg was administered intravenously 2 h after paltusotine (or placebo) on Day 1 and at approximately the same time on Day -1 (± 10 min). A blood sample for serum GH was collected at − 60 min, − 30 min, immediately before GHRH challenge, and at 15, 30, 45, 60, 90, and 120 min post-challenge. Serum GH was also assessed in the M1 cohort. Serum GH sample was collected on Day - 1, on Days 1 and 7 (pre-dose, 0.5, 1, 2, 3, 4, 6, 8, 10, 12 and 18 h post-dose), Days 2–6 (pre-dose and 12 h post-dose), and Days 8, 10 and 14 (at approximately the same time as dosing).
as §1, §2

[3] = Relative bioavailability of capsule versus solution and food effect (10 mg); type: in vivo, human; settings: for Tmax: human, plasma, oral
Description: Screening occurred within 28 days prior to the first administered dose (Day 1) in both single-dose and multiple-dose cohorts. Participants were confined to a clinical research unit from Day -2 until the day after the last dose. Dosing of paltusotine or placebo commenced on Day 1 after baseline studies. Participants fasted overnight for ≥ 10 h prior to each dose administration and remained fasting until 4 h post-dose (after collection of the last GH sample after growth hormone-releasing hormone [GHRH] challenge). For the food effect cohort, the study drug was administered 30 min after a high-fat and high-calorie breakfast. Crinetics Pharmaceuticals, Inc (San Diego, CA) provided the active ingredient, paltusotine (3-[4-(4-Aminopiperidin-1-yl)-3-(3,5-difluorophenyl)quinolin-6-yl]-2-hydroxybenzonitrile hydrochloride; CRN00808), for administration as either an oral solution (prepared on site at the Phase 1 unit) or as capsules (placebo, 5 mg, and 20 mg).
In the single-dose phase, participants were randomized 6:2 to paltusotine (1.25, 2.5, 5, 10, 20, 40, and 60 mg) or placebo in 7 cohorts (S1 to S7). Cohorts comparing oral bioavailability of solution versus capsules and the effect of a standardized high-fat, high-calorie breakfast on oral bioavailability of the capsule formulation employed the 10 mg dose level. In the multiple-dose phase, participants were randomized 6:3 to once-daily oral paltusotine capsules or placebo at doses of 5 mg for 7 days (M1, Day Last = Day 7), and 10, 20, and 30 mg daily for 10 days (M2, M3, M4, Day Last = Day 10). The initial starting dose of 1.25 mg in the single-dose phase was selected for this study based on nonclinical pharmacologic activity, pharmacokinetics, and safety studies. Subsequent doses were either specified in the protocol or were selected by the safety review committee responsible for the safety oversight of the study.
For assessing pharmacokinetics of paltusotine, the single-dose pharmacokinetic population included all randomized participants who received any amount of study drug with sufficient plasma concentration data. For the multiple-dose cohorts, only participants who received all doses were included. The relative bioavailability of the capsule formulation was determined by comparing its pharmacokinetic parameters with those of the solution formulation at the 10 mg dose. Food effect was determined at the same dose by comparing pharmacokinetic parameters in the fasting state to those when paltusotine was administered with a high-fat, high-calorie meal. For both formulation and food effect, ANOVA with treatment as a fixed effect and subject as a random effect was performed. Data for peak concentration (Cmax), AUC0-last, and AUC0-inf were natural log-transformed.

[4] = system: stimulated-GH and IGF-1 secretion; design: method as in ref 13 = [13]; 13. Betz SF Markison S Kusnetzow AK Athanacio JD Rico-Bautista E Madan A Suppression of growth hormone and insulin-like growth factor 1 in rats after oral administration of CRN00808, a small molecule; settings: cited from earlier work
[5] = system: SST2; design: method as in ref 13 = [13]; 13. Betz SF Markison S Kusnetzow AK Athanacio JD Rico-Bautista E Madan A Suppression of growth hormone and insulin-like growth factor 1 in rats after oral administration of CRN00808, a small molecule; settings: cited from earlier work
[6] = plasma concentration-response model, 1.25-20 mg single doses

## Cl.N#Cc1cccc(-c2ccc3ncc(-c4cc(F)cc(F)c4)c(N4CCC(N)CC4)c3c2)c1O [paltusotine, 3-[4-(4-Aminopiperidin-1-yl)-3-(3,5-difluorophenyl)quinolin-6-yl]-2-hydroxybenzonitrile hydrochloride]
[1]; 5 mg once daily, Day 7, relative to baseline
  IGF-1 suppression: 19%
[1]; 10 mg cohort, final dose on Day 10
  additional time IGF-1 remained suppressed after the final dose: 4 days
[1]; 10 mg once daily, Day 10, relative to baseline
  IGF-1 suppression: 37%
[1]; 20 mg once daily, Day 10, relative to baseline
  IGF-1 suppression: 37%
[1]; 30 mg once daily, Day 10, relative to baseline
  IGF-1 suppression: 30%
[1]; multiple-dose cohorts
  maximal degree of IGF-1 suppression: up to 37%
[1]; once-daily dosing (10 mg cohort illustrated)
  time to near-maximum IGF-1 suppression: approximately 7 days
[1]; single 1.25 to 20 mg dose, compared to Day -1 or placebo
  serum IGF-1 change after a single dose: little to no change
[2]; 10 mg single dose, Day 1, GHRH alone on Day -1 gave 21 ng/mL
  mean peak GH concentration after GHRH challenge: 1.7 ng/mL
[2]; 10 mg single dose, placebo 15%
  suppression of stimulated GH AUC0-2 h: 91%
[2]; Homo sapiens, read-out: paltusotine concentration for 50% GH suppression (EC50), plasma concentration-response model, 1.25-20 mg single doses
  EC50: ~7.9 ng/mL
[2]; [6]
  paltusotine concentration for 50% GH suppression (EC50): 7.9 ng/mL
  paltusotine concentration for 80% GH suppression (EC80): ~29 ng/mL
[3]; 10 mg capsules
  AUC0-inf geometric mean ratio, high-fat high-calorie meal relative to fasted: 17%
  Cmax geometric mean ratio, high-fat high-calorie meal relative to fasted: 14%
[3]; 10 mg, fasted
  AUC0-inf geometric mean ratio, capsule relative to oral solution: 69%
  Cmax geometric mean ratio, capsule relative to oral solution: 83%
[3]; high-fat, high-calorie meal before 10 mg capsule
  decrease in Cmax and AUC0-24 with food: more than 7 fold
[3]; 10 mg, 10 mg capsules with high-fat, high-calorie meal
  Tmax: 3 h
[3]; 10 mg, 10 mg capsules, fasted
  Tmax: 2.1 h
[4]
  stimulated-GH and IGF-1 secretion in rats: suppresses stimulated-GH and IGF-1 secretion
[5]
  selectivity for SST2 over other somatostatin receptor subtypes: > 4000 fold
[5]; read-out: SST2 agonist EC50
  EC50: 0.25 nM
